Literature values in patent US6395309B1, “Use of an extract of Alchemilla vulgaris to inhibit angiogenesis” (Weber & Weber GmbH & Co. KG, priority 1998, dated 2002).

How the values were obtained:
[1] = clinically tested

Row | SMILES | histamine release from mast cells (mast cells) | toxic effects on clinical testing [1]
1 | O=c1c(O)c(-c2ccc(O)cc2)oc2cc(O)cc(O)c12 [Campherol] | inhibits histamine release | 
2 | Cc1ccc(C(=O)Nc2ccc(S(=O)(=O)O)c3cc(S(=O)(=O)O)cc(S(=O)(=O)O)c23)cc1NC(=O)c1cccc(NC(=O)Nc2cccc(C(=O)Nc3cc(C(=O)Nc4ccc(S(=O)(=O)O)c5cc(S(=O)(=O)O)cc(S(=O)(=O)O)c45)ccc3C)c2)c1 [Sumarin] |  | therapeutic use is questionable because of toxic effects
